Assay results taken from patent US9981972B2, “N-hydroxy bicyclic hydantoin carbamates as tools for identification of serine hydrolase targets” (ABIDE THERAPEUTICS, INC., priority 2014, dated 2018).
Each block holds one compound with its values, some of them ahead of it.

Columns and labels:
[1] = system: other SHs (anti-targets) in mouse tissues; experiment: Inhibition by gel-based competitive ABPP in vivo, other SHs; settings: 4 h
Method: In this assay, test compounds were administered to mice. Mice were sacrificed, and their tissues harvested, homogenized, and the soluble fractions isolated, reacted with FP-Rh, and separated by SDS-PAGE as described above.
Protocol Summary: Purpose-bred 3-4 month old male C57BL6 laboratory mice were i.p. administered test compound (0.5-50 mg/kg in 18:1:1 saline:PEG-40-castor oil:EtOH vehicle solution, 10 μL/g mouse weight) or vehicle only. After 4 hours, mice were humanely sacrificed (anesthetized with isoflurane followed by cervical dislocation), and tissues (liver, kidney, brain) removed and snap frozen in liquid nitrogen before processing. Tissues were homogenized, and soluble proteome isolated by ultracentrifugation (100 k×g, 45 minutes) and protein concentration adjusted to 1 mg/mL in DPBS. An aliquot (50 μL) was reacted with FP-Rh (2 μM final concentration) for 30 minutes at 25° C. Reactions were quenched with 16 μL 4×SDS-PAGE loading buffer (reducing), separated by SDS-PAGE, and visualized by in-gel fluorescent scanning. The percentage activity remaining was determined by measuring the integrated optical density of test compound bands relative to vehicle bands. Note: Due to the overlapping nature of LYPLA1 and LYPLA2 bands, the proteins were quantified together.
The in vivo inhibitory activity of Compound 1 was assessed. For this experiment, mice were administered test compound (0.5-50 mg/kg, i.p.) or vehicle only. After four hours mice were sacrificed and their tissues removed, homogenized, and the soluble fractions isolated and labeled with FP-Rh followed by SDS-PAGE and fluorescent detection of FP-labeled SHs (see FIG. 3B).
Compound 26, Compound 34, and Compound 1 were administered across a dose range of 1-40 mg/kg to C57BL6 mice by intraperitoneal injection, and, after 4 hours, animals were sacrificed and tissues harvested for analysis by gel-based ABPP using the FP-Rh probe and the Compound 39 probe.

PPT1 = target: T1, PPT1 (Homo sapiens, UniProt P50897); experiment: ABPP-SILAC, PC3 cells treated in situ, Compound 39 probe; format: cell-based; parameters: endogenous in cells; host or cells: PC3; settings: 4 h in situ
T1 sequence (P50897 28-306): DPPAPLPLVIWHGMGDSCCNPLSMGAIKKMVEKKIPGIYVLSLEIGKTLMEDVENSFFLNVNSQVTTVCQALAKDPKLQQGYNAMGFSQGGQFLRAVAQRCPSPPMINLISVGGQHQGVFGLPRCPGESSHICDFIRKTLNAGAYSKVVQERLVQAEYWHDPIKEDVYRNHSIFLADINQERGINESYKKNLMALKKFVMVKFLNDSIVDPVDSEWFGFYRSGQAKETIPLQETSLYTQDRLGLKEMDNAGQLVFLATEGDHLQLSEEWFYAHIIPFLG
Method: In situ inhibitor treatments of human cell lines were performed as described previously (Hsu et al., J Med Chem 56, 8270-8279, 2012). Briefly, PC3 or transfected HEK293T cells were grown to confluency in serum-containing media (RPMI or DMEM, respectively). The culture media was then removed and replaced with fresh media containing DMSO or inhibitor at the desired concentration and incubated for 4 hours in a tissue culture incubator (37° C., 5% CO2). Cells were then washed with PBS, harvested, washed with PBS once more, and lysed with a probe sonicator.
Isotopically heavy- and light-labeled PC3 cells were treated with Compound 37 (1 μM) or DMSO for 4 h, respectively, lysed, and then treated Compound 39 (5 μM, 1 h). […] Accordingly, PPT1 was not detected in our previous ABPP-SILAC studies with FP-biotin (see FIG. 9). […]
To evaluate the broader selectivity of Compound 26 and Compound 34 across the SH class, heavy and light isotopically-labeled PC3 cells were treated with inhibitor [Compound 34 (1 μM); or Compound 26 (1 or 0.1 μM); 4 h) and DMSO, respectively, followed by ABPP-SILAC analysis with either the FP-biotin probe or the Compound 39 probe. […] Conversely, Compound 34 inhibited >90% of ABHD4 activity, as measured with either the FP-biotin probe or the Compound 39 probe, and cross-reacted with four additional targets—ABHD6, PAFAH2, PLA2G7, and PLA2G15.

Compound: O=C(ON1C(=O)C2CN(C(=O)N3CCOCC3)CCN2C1=O)N1CCC(CCc2ccc(Cl)cc2)CC1 (centres unmarked) [Compound 1, 7-(morpholine-4-carbonyl)-1,3-dioxohexahydroimidazo[1,5-a]pyrazin-2(3H)-yl 4-(4-chloro-phenethyl)piperidine-1-carboxylate]
anti-target inhibition in vivo ([1]; 0.5-50 mg/kg i.p., any tissue, ABHD6 not visible): no significant anti-target inhibition
cross-reactivity with other SHs in vivo ([1]; 1-40 mg/kg i.p.): limited cross-reactivity with other SHs

inhibition of PPT1 in PC3 cells (PPT1; 1 or 0.1 μM, Compound 39 probe): ~90%
Compound: COc1ccc(N2CCN(C(=O)ON3C(=O)C4CN(CC5CCN(Cc6ccccc6)CC5)CCN4C3=O)CC2)cc1 (centres unmarked) [Compound 26, 7-((1-benzylpiperidin-4-yl)methyl)-1,3-dioxohexahydroimidazo[1,5-a]pyrazin-2(3H)-yl 4-(4-methoxyphenyl)piperazine-1-carboxylate]
inhibition of other SHs in vivo ([1]; 1-40 mg/kg i.p., brain and testis, FP-Rh or Compound 39 probe): did not inhibit other SHs

inhibition at 1 µM (PPT1; PC-3, 1 μM, Compound 39 probe (5 μM, 1 h)): > 90%
Compound: COc1ccc(N2CCN(C(=O)ON3C(=O)C4CN(Cc5ccc(Oc6ccccc6)cc5)CCN4C3=O)CC2)cc1 (centres unmarked) [Compound 37, 1,3-dioxo-7-(4-phenoxybenzyl)hexahydroimidazo[1,5-a]pyrazin-2(3H)-yl 4-(4-methoxyphenyl)piperazine-1-carboxylate]
